Measured values published in patent publication US8435970B2 (priority 2006, dated 2013).
Converted amounts (≈) assume the structure as drawn. Counter-ions that a name gives are not always drawn.

Key:
OVCAR-3 tumour cells = details: concentrations of 50 and 100 microM; PKB amplified; cited from earlier work
[1] = system: human tumour derived cell lines engrafted sub-cutaneously; details: nude mice, sub-cutaneous human tumour xenografts
[2] = system: primary human mammary epithelial cells; assay: In vitro studies with normal cells; details: 24 h compound treatment, cf. tumor cells
[3] = system: Aurora (Histone H3 phosphorylation); assay: Western blotting assay of downstream substrate phosphorylation; type: cell-based; details: western blot; concentration of inhibition
[4] = Gravimetric vapour sorption (GVS); type: physicochemical; details: for hygroscopic behaviour (GVS isotherm): 0 to 95% RH, 25° C.
Procedure: E. Gravimetric Vapour Sorption (GVS):
The sample size was ca. 10-25 mg. […] The sample was loaded and unloaded at room humidity and temperature (ca. 40% RH, 25° C.) and analysed afterwards by XRPD (using a Bruker AXS C2 GADDS system).

[5] = citrate buffer, pH 4.5, aqueous buffer

Q: For `O=S(=O)(NCCNCC=C(c1ccccc1)c1ccccc1)c1cccc2cnccc12` [NL-71-101], which apoptosis induction (OVCAR-3 tumour cells) is on record?
A: Its apoptosis induction is “induced apoptosis”.

Q: Which “anti-tumour action as a single agent” value [1] does the source give for `O=C(Nc1c[nH]nc1-c1nc2cc(CN3CCOCC3)ccc2[nH]1)NC1CC1` [compound of formula (I)] here?
A: Its value is “anti-tumour action”.

Q: And the “effect on normal checkpoint competent cells” value [2]?
A: The value was “reversible G2/M arrest”.

Q: Which “Inhibition of Histone H3 phosphorylation (Aurora)” value [3] does the source give for `O=C(Nc1c[nH]nc1-c1nc2cc(CN3CCOCC3)ccc2[nH]1)NC1CC1` here?
A: The value was 10 to 30 nM.

Q: For `O=C(Nc1c[nH]nc1-c1nc2cc(CN3CCOCC3)ccc2[nH]1)NC1CC1` [L-lactate salt], which “hygroscopic behaviour (GVS isotherm)” value [4] is on record?
A: The value was “does not display hygroscopic behaviour”.

Q: With `O=C(Nc1c[nH]nc1-c1nc2cc(CN3CCOCC3)ccc2[nH]1)NC1CC1` [free base] as the molecule, how does the solubility [5] read?
A: The solubility was about 80 mg/mL (≈ 210 mM).

Q: What about the “hygroscopic behaviour (GVS isotherm)” value ([4]; listed as Free Base) of the same molecule?
A: The value was “hygroscopic”.

Q: And the “sample weight difference between 0% R.H and 95% R.H.” value ([4]; GVS)?
A: Its value is “approximately 9%”.
